From patent US20090018134A1, “Compounds - 945” (AstraZeneca AB, priority 2007, published 2009)
pIC50: −log10 of the molar value.

Target: T1, mTOR (Homo sapiens, UniProt P42345)
T1 construct: FLAG; made in house
Experiment: In Vitro mTOR Kinase Assay (Echo), Test (a)(ii)
Assay type: biochemical
Conditions: table of enzyme assay Test (a)(ii); read-out: Test (a)(ii) IC50
Summary of the method: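 Inhibition expressed as IC50 from an AlphaScreen read-out: phospho-T389 p70 S6K antibody plus streptavidin donor/protein A acceptor beads, left overnight in the dark. The kinase reaction ran 2 h at room temperature, then was stopped with EDTA. Enzyme: FLAG-purified mTOR 1362-2549 fragment from stable HEK293 cells.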

T1 sequence (P42345 1362-2549): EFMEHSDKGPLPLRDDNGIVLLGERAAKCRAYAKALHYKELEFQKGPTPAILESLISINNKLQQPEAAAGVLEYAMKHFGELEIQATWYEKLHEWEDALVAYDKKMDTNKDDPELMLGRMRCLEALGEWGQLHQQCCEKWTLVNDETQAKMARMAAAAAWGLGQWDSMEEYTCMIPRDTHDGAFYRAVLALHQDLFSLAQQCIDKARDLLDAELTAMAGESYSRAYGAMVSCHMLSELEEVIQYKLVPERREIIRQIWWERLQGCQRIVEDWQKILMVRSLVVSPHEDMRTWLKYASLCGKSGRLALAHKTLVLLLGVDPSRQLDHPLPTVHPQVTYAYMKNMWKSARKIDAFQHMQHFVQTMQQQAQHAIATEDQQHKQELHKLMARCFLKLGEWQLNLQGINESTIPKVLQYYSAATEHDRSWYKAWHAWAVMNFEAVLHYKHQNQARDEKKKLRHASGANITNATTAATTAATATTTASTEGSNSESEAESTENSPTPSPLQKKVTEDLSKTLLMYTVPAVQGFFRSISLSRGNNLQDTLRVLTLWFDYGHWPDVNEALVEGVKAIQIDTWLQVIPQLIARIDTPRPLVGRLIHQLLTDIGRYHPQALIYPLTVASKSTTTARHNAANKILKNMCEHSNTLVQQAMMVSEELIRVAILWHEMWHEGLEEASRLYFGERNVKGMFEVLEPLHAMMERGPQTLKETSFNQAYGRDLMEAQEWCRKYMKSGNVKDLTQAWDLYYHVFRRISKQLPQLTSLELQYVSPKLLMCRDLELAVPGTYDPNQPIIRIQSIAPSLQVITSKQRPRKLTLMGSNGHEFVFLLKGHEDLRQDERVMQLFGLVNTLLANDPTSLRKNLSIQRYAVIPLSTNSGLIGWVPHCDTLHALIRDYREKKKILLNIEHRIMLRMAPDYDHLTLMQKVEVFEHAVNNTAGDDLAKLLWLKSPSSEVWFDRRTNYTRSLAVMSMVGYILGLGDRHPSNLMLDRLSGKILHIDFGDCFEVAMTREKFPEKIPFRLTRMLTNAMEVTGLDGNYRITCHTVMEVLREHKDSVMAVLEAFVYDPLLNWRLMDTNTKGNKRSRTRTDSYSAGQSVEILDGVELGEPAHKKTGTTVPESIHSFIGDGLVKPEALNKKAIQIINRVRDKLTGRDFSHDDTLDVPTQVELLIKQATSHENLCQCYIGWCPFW

pIC50 | SMILES
8.40 | CNC(=O)Nc1ccc(-c2nc(N3CCOC[C@@H]3C)cc(C3(S(=O)(=O)C4CCCCC4)CC3)n2)cc1 [Example 26e, 1-[4-[4-(1-cyclohexylsulfonylcyclopropyl)-6-[(3S)-3-methylmorpholin-4-yl]pyrimidin-2-yl]phenyl]-3-methylurea]
8.34 | C[C@H]1COCCN1c1cc(C2(S(=O)(=O)C3CCCCC3)CC2)nc(-c2ccc(NC(=O)NC(C)(C)CO)cc2)n1 [Example 26f, 1-[4-[4-(1-cyclohexylsulfonylcyclopropyl)-6-[(3S)-3-methylmorpholin-4-yl]pyrimidin-2-yl]phenyl]-3-(1-hydroxy-2-methylpropan-2-yl)urea]
8.13 | C[C@H]1COCCN1c1cc(C2(S(=O)(=O)C3CCCCC3)CC2)nc(-c2ccc(NC(=O)NCCCO)cc2)n1 [Example 26g, 1-[4-[4-(1-cyclohexylsulfonylcyclopropyl)-6-[(3S)-3-methylmorpholin-4-yl]pyrimidin-2-yl]phenyl]-3-(3-hydroxypropyl)urea]
8.40 | C[C@H]1COCCN1c1cc(C2(S(=O)(=O)C3CCCCC3)CC2)nc(-c2ccc(NC(=O)Nc3cnn(C)c3)cc2)n1 [Example 26h, 1-[4-[4-(1-cyclohexylsulfonylcyclopropyl)-6-[(3S)-3-methylmorpholin-4-yl]pyrimidin-2-yl]phenyl]-3-(1-methylpyrazol-4-yl)urea]
8.41 | C[C@H]1COCCN1c1cc(C2(S(=O)(=O)c3ccc(Cl)cc3)CC2)nc(-c2ccc(NC(=O)NC3CCC3)cc2)n1 [Example 27a, 1-[4-[4-[1-(4-chlorophenyl)sulfonylcyclopropyl]-6-[(3S)-3-methylmorpholin-4-yl]pyrimidin-2-yl]phenyl]-3-cyclobutylurea]
8.37 | C[C@H]1COCCN1c1cc(C2(S(=O)(=O)c3ccc(Cl)cc3)CC2)nc(-c2ccc(NC(=O)Nc3ccccn3)cc2)n1 [Example 27b, 1-[4-[4-[1-(4-chlorophenyl)sulfonylcyclopropyl]-6-[(3S)-3-methylmorpholin-4-yl]pyrimidin-2-yl]phenyl]-3-pyridin-2-ylurea]
7.85 | CC(C)CNC(=O)Nc1ccc(-c2nc(N3CCOC[C@@H]3C)cc(C3(S(=O)(=O)c4ccc(Cl)cc4)CC3)n2)cc1 [Example 27c, 1-[4-[4-[1-(4-chlorophenyl)sulfonylcyclopropyl]-6-[(3S)-3-methylmorpholin-4-yl]pyrimidin-2-yl]phenyl]-3-(2-methylpropyl)urea]
8.51 | CC(C)NC(=O)Nc1ccc(-c2nc(N3CCOC[C@@H]3C)cc(C3(S(=O)(=O)c4ccc(Cl)cc4)CC3)n2)cc1 [Example 27d, 1-[4-[4-[1-(4-chlorophenyl)sulfonylcyclopropyl]-6-[(3S)-3-methylmorpholin-4-yl]pyrimidin-2-yl]phenyl]-3-propan-2-ylurea]
8.52 | CCCNC(=O)Nc1ccc(-c2nc(N3CCOC[C@@H]3C)cc(C3(S(=O)(=O)c4ccc(Cl)cc4)CC3)n2)cc1 [Example 27i, 3-[4-[4-[1-(4-chlorophenyl)sulfonylcyclopropyl]-6-[(3S)-3-methylmorpholin-4-yl]pyrimidin-2-yl]phenyl]-1-propylurea]
8.12 | C[C@H]1COCCN1c1cc(C2(S(=O)(=O)c3ccc(Cl)cc3)CC2)nc(-c2ccc(NC(=O)Nc3ccc(C(F)(F)F)cc3)cc2)n1 [Example 27j, 1-[4-[4-[1-(4-chlorophenyl)sulfonylcyclopropyl]-6-[(3S)-3-methylmorpholin-4-yl]pyrimidin-2-yl]phenyl]-3-[4-(trifluoromethyl)phenyl]urea]
8.34 | C[C@H]1COCCN1c1cc(C2(S(=O)(=O)c3ccc(Cl)cc3)CC2)nc(-c2ccc(NC(=O)NC(C)(C)CO)cc2)n1 [Example 27k, 1-[4-[4-[1-(4-chlorophenyl)sulfonylcyclopropyl]-6-[(3S)-3-methylmorpholin-4-yl]pyrimidin-2-yl]phenyl]-3-(1-hydroxy-2-methylpropan-2-yl)urea]
8.95 | C[C@H]1COCCN1c1cc(C2(S(=O)(=O)c3ccc(Cl)cc3)CC2)nc(-c2ccc(NC(=O)NCCCO)cc2)n1 [Example 27l, 1-[4-[4-[1-(4-chlorophenyl)sulfonylcyclopropyl]-6-[(3S)-3-methylmorpholin-4-yl]pyrimidin-2-yl]phenyl]-3-(3-hydroxypropyl)urea]
8.84 | C[C@H]1COCCN1c1cc(C2(S(=O)(=O)c3ccc(Cl)cc3)CC2)nc(-c2ccc(NC(=O)Nc3cnn(C)c3)cc2)n1 [Example 27m, 1-[4-[4-[1-(4-chlorophenyl)sulfonylcyclopropyl]-6-[(3S)-3-methylmorpholin-4-yl]pyrimidin-2-yl]phenyl]-3-(1-methylpyrazol-4-yl)urea]
8.60 | C[C@H]1COCCN1c1cc(C2(S(=O)(=O)c3ccccn3)CC2)nc(-c2ccc(NC(=O)NC3CCC3)cc2)n1 [Example 28a, 3-cyclobutyl-1-[4-[4-[(3S)-3-methylmorpholin-4-yl]-6-(1-pyridin-2-ylsulfonylcyclopropyl)pyrimidin-2-yl]phenyl]urea]
8.83 | C[C@H]1COCCN1c1cc(C2(S(=O)(=O)c3ccccn3)CC2)nc(-c2ccc(NC(=O)Nc3ccccn3)cc2)n1 [Example 28b, 1-[4-[4-[(3S)-3-methylmorpholin-4-yl]-6-(1-pyridin-2-ylsulfonylcyclopropyl)pyrimidin-2-yl]phenyl]-3-pyridin-2-ylurea]
8.07 | CC(C)CNC(=O)Nc1ccc(-c2nc(N3CCOC[C@@H]3C)cc(C3(S(=O)(=O)c4ccccn4)CC3)n2)cc1 [Example 28c, 1-[4-[4-[(3S)-3-methylmorpholin-4-yl]-6-(1-pyridin-2-ylsulfonylcyclopropyl)pyrimidin-2-yl]phenyl]-3-(2-methylpropyl)urea]
8.63 | CC(C)NC(=O)Nc1ccc(-c2nc(N3CCOC[C@@H]3C)cc(C3(S(=O)(=O)c4ccccn4)CC3)n2)cc1 [Example 28d, 1-[4-[4-[(3S)-3-methylmorpholin-4-yl]-6-(1-pyridin-2-ylsulfonylcyclopropyl)pyrimidin-2-yl]phenyl]-3-propan-2-ylurea]
9.36 | CNC(=O)Nc1ccc(-c2nc(N3CCOC[C@@H]3C)cc(C3(S(=O)(=O)c4ccccn4)CC3)n2)cc1 [Example 28e, 3-methyl-1-[4-[4-[(3S)-3-methylmorpholin-4-yl]-6-(1-pyridin-2-ylsulfonylcyclopropyl)pyrimidin-2-yl]phenyl]urea]
7.17 | C[C@H]1COCCN1c1cc(C2(S(=O)(=O)c3ccccn3)CC2)nc(-c2ccc(NC(=O)NCCN(C)C)cc2)n1 [Example 28f, 3-(2-dimethylaminoethyl)-1-[4-[4-[(3S)-3-methylmorpholin-4-yl]-6-(1-pyridin-2-ylsulfonylcyclopropyl)pyrimidin-2-yl]phenyl]urea]
9.03 | CCCNC(=O)Nc1ccc(-c2nc(N3CCOC[C@@H]3C)cc(C3(S(=O)(=O)c4ccccn4)CC3)n2)cc1 [Example 28h, 3-[4-[4-[(3S)-3-methylmorpholin-4-yl]-6-(1-pyridin-2-ylsulfonylcyclopropyl)pyrimidin-2-yl]phenyl]-1-propylurea]
8.82 | C[C@H]1COCCN1c1cc(C2(S(=O)(=O)c3ccccn3)CC2)nc(-c2ccc(NC(=O)Nc3ccc(C(F)(F)F)cc3)cc2)n1 [Example 28i, 1-[4-[4-[(3S)-3-methylmorpholin-4-yl]-6-(1-pyridin-2-ylsulfonylcyclopropyl)pyrimidin-2-yl]phenyl]-3-[4-(trifluoromethyl)phenyl]urea]
8.25 | C[C@H]1COCCN1c1cc(C2(S(=O)(=O)c3ccccn3)CC2)nc(-c2ccc(NC(=O)NC(C)(C)CO)cc2)n1 [Example 28j, 3-(1-hydroxy-2-methylpropan-2-yl)-1-[4-[4-[(3S)-3-methylmorpholin-4-yl]-6-(1-pyridin-2-ylsulfonylcyclopropyl)pyrimidin-2-yl]phenyl]urea]
9.02 | C[C@H]1COCCN1c1cc(C2(S(=O)(=O)c3ccccn3)CC2)nc(-c2ccc(NC(=O)NCCCO)cc2)n1 [Example 28k, 3-(3-hydroxypropyl)-1-[4-[4-[(3S)-3-methymorpholin-4-yl]-6-(1-pyridin-2-ylsulfonylcyclopropyl)pyrimidin-2-yl]phenyl]urea]
9.35 | C[C@H]1COCCN1c1cc(C2(S(=O)(=O)c3ccccn3)CC2)nc(-c2ccc(NC(=O)Nc3cnn(C)c3)cc2)n1 [Example 28l, 1-[4-[4-[(3S)-3-methylmorpholin-4-yl]-6-(1-pyridin-2-ylsulfonylcyclopropyl)pyrimidin-2-yl]phenyl]-3-(1-methylpyrazol-4-yl)urea]
8.38 | C[C@H]1COCCN1c1cc(C2(S(C)(=O)=O)CC2)nc(-c2ccc(NC(N)=O)cc2)n1 [Example 29, [4-[4-[(3S)-3-Methylmorpholin-4-yl]-6-(1-methylsulfonylcyclopropyl)pyrimidin-2-yl]phenyl]urea]
7.60 | C[C@H]1COCCN1c1cc(C2(S(=O)(=O)c3cc(F)cc(F)c3)CCNCC2)nc(-c2ccc(NC(=O)NC3CC3)cc2)n1 [Example 30, 3-Cyclopropyl-1-[4-[4-[4-(3,5-difluorophenyl)sulfonylpiperidin-4-yl]-6-[(3S)-3-methylmorpholin-4-yl]pyrimidin-2-yl]phenyl]urea]
8.34 | CC(C)NC(=O)Nc1ccc(-c2nc(N3CCOC[C@@H]3C)cc(C3(S(=O)(=O)CCCO)CC3)n2)cc1 [Example 31, 1-[4-[4-[1-(3-Hydroxypropylsulfonyl)cyclopropyl]-6-[(3S)-3-methylmorpholin-4-yl]pyrimidin-2-yl]phenyl]-3-propan-2-ylurea]
8.30 | C[C@H]1COCCN1c1cc(C2(S(=O)(=O)CCCO)CC2)nc(-c2ccc(NC(=O)NC3CCC3)cc2)n1 [Example 31b, 3-cyclobutyl-1-[4-[4-[1-(3-hydroxypropylsulfonyl)cyclopropyl]-6-[(3S)-3-methylmorpholin-4-yl]pyrimidin-2-yl]phenyl]urea]
8.88 | C[C@H]1COCCN1c1cc(C2(S(=O)(=O)CCCO)CC2)nc(-c2ccc(NC(=O)Nc3ccccn3)cc2)n1 [Example 31c, 1-[4-[4-[1-(3-hydroxypropylsulfonyl)cyclopropyl]-6-[(3S)-3-methylmorpholin-4-yl]pyrimidin-2-yl]phenyl]-3-pyridin-2-ylurea]
